{"source": "patent US20030008857A1", "about": "“Photodynamic therapy (PDT) in combination with factors that bind cell surface apoptosis-inducing receptors” (priority 1999, published 2003)", "assay_type_in_all_cases": "cell-based, human", "key": {"caspase-3, -6 and -8": {"system": "caspase-3, -6 and -8", "assay": "Caspase cleavage activity of cell extracts, statements covering DEVD, VEID and IETD peptides together", "conditions": "for protease activity on DEVD, VEID and IETD peptides, single treatment: FIG. 7: verteporfin 5 ng/ml with light, FasL 7.5 ng/ml or TRAIL 20 ng/ml alone", "description": "(§1) The human Jurkat T cell line containing a neomycin resistance gene was obtained from Dr. Charles Rudin (University of Chicago). Cells were maintained in RPMI 1640 medium containing 10% heat-inactivated fetal calf serum (FCS) with penicillin (100 U/mL), streptomycin (100 μg/mL), 20 mM HEPES, 2 mM L-glutamine and G418 (1 μg/ml) purchased from Gibco BRL (Burlington, Ontario) in a CO2 incubator at 37° C. To elicit apoptosis with PDT, Jurkat cells were incubated with different amounts of liposomally formulated benzoporphyrin derivative monoacid ring A (BPD-MA, verteporfin, QLT PhotoTherapeutics, Inc., Vancouver, Canada) for one hour at 37° C. under light-protected conditions. The culture medium used for experiments was identical to that used for the passage of the cells except that FCS was used at a concentration of 5%. Experiments were conducted either in 6-well culture plates at 5×10^6 cells in a volume of 4 ml per well or in 96-well microtiter plates at 1×10^5 cells per well at 0.2 ml per well. Cells were irradiated with light of a wavelength of 690 nm delivered at 65-73 mW/sec from light emitting diodes (LED) to achieve a total light dose of 5 J/cm^2. Cells were returned to the incubator until required for analysis.\n(§2) FasL and TRAIL as used were recombinant preparations. FasL was obtained from Upstate Biotechnology (Lake Placid NY) and corresponded to amino acids 103-281 of the soluble domain of human FasL. TRAIL was obtained from BIOMOL Research Laboratories (Plymouth Meeting, Pa.) and corresponded to residues 114-281 of the soluble domain of human TRAIL. FasL and TRAIL were usually added immediately following the treatment of cells with PDT, although in one series of experiments these factors were added at 1, 2 or 3 hours post-irradiation.\n(§3) Whole cell lysates were prepared by washing 1×10^7 cells per sample twice with ice-cold PBS. Cells were disrupted with 1 mL of lysis buffer [1% Nonidet P-40 detergent (NP-40), 20 mM Tris-HCl, pH 8.0, 137 mM NaCl, 10% glycerol, 1 mM phenylmethylsulfonyl fluoride (PMSF) aprotinln (0.15 U/mL) and 1 mM sodium orthovanadate] for 20 minutes on ice. Lysates were centrifuged for 10 minutes at 15,800×g at 4° C.\nThese sequences are denoted by letter codes for each amino acid. To evaluate relative DEVDase (caspases 3 and 7), VEIDase (caspase 6) and IETDase (caspase 8) cleavage activity, Jurkat cell lysates were incubated with caspase-specific fluorescent substrates as described by Granville et al. (“Photodynamic therapy induces caspase-3 activation in HL-60 cells”, Cell Death Differ., 4, 623-629 (1997)). Briefly, lysates were incubated with reaction buffer (20 mM Tris pH 7.5, 137 mM NaCl, 1% NP-40, 10% glycerol) containing 100 μM of the caspase substrates Ac-DEVD-AMC (Calbiochem, Cambridge, Mass.), Ac-VEID-AMC (Calbiochem, Cambridge, Mass.), Ac-lETD-AMC (BIOMOL, Plymouth Meeting Pa.), and Ac-LEHD-AMC (Calbiochem, Cambridge, Mass.). The letter codes for the amino acid residues present within the inhibitor peptides are as following: D=aspartic acid; E=glutamic acid; H=histidine; I=isoleucine; T=threonine; V=valine. The reaction mixture was incubated at 37° C. for 1 (DEVD.AMC) or 24 (VEID.AMC and IETH.AMC) h and fluorescence was measured using an excitation at 380 nm and an emission wavelength of 460 nm with a CytoFluor™ 2350 fluorescent measuring system (Perseptive Biosystems, Burlington, Ont)."}, "[1]": {"system": "caspase-3, -6, -8 and -9 and PARP", "assay": "Western immunoblot of caspase processing and PARP cleavage in Jurkat cells", "description": "as §1, §2, §3\nTo evaluate the activation state of different caspases and the status of other cellular proteins, whole cell lysates were separated by sodium dodecyl sulphate polyacrylamide gel electrophoresis (SDS-PAGE). Specifically, detergent-soluble proteins were separated by SDS-PAGE within 10% gels under reducing conditions as described by Laemmli et al. (“Cleavage of Structural Proteins During the Assembly of the Head of Bacteriophage T4”, Nature, 227, 680-685 (1970)). The proteins were transferred to nitrocellulose membranes at 100 volts for one hour. […]"}, "cytochrome c": {"system": "cytochrome c", "assay": "Cytochrome c in cytosolic extracts of Jurkat cells (immunoblot)", "description": "as §1, §2\nTo obtain cytosolic extracts, cells were treated with 0.6 ml of ice-cold buffer [250 mM sucrose, 20 mM Hepes pH 7.4, 10 mM KCl, 1.5 mM MgCl2, 1 mM EGTA, 1 mM EDTA, 1 mM dithiothreitol, 1 mM PMSF and aprotinin (10 μg/ml)]. Cells were disrupted by 20 strokes with the B pestle of a Kontes™ dounce homogenizer. Supernatant collected following centrifugation at 10000×g was further centrifuged at 100000×g for 1 h at 4° C. in a Beckman Optima™ ultracentrifuge using a TL-100 rotor. (Granville et al., “Rapid cytochrome c release, activation of caspases 3, 6, 7 and 8 followed by Bap31 cleavage in HeLa cells treated with photodynamic therapy”, FEBS Lett. 437, 5-10 (1998)).\nTo evaluate the activation state of different caspases and the status of other cellular proteins, whole cell lysates were separated by sodium dodecyl sulphate polyacrylamide gel electrophoresis (SDS-PAGE). […]"}, "[2]": {"conditions": "FasL 7.5 ng/ml or TRAIL 20 ng/ml, 3 hours"}}, "note": "“Also recorded” adds a separate entry of the source.", "data": [{"substance": "TRAIL: recombinant, residues 114-281 of the soluble domain of human TRAIL (BIOMOL)", "values": [{"measurement": "caspase activity compared with the treatments given independently", "setting": "caspase-3, -6 and -8; FIG. 7: factor combined with PDT (verteporfin 5 ng/ml, 5 J/cm^2), 3 hours", "value": "higher caspase activity"}, {"measurement": "protease activity on DEVD, VEID and IETD peptides, single treatment", "setting": "caspase-3, -6 and -8; 3 hours", "value": "modestly increased"}, {"measurement": "caspase activity compared with PDT or TRAIL applied independently", "setting": "caspase-3, -6 and -8; TRAIL 20 ng/ml plus PDT, each verteporfin concentration, 3 hours", "value": "higher"}, {"measurement": "protease activity compared with FasL or TRAIL alone", "setting": "caspase-3, -6 and -8; factor plus verteporfin in the absence of light irradiation", "value": "no different"}, {"measurement": "caspase processing and PARP degradation compared with PDT or the factor alone", "setting": "[1]; FasL 7.5 ng/ml or TRAIL 20 ng/ml combined with verteporfin PDT, 3 hours", "value": "more extensive caspase processing and PARP degradation; also recorded: a higher degree of processing"}, {"measurement": "processing of caspases and PARP by the factor alone", "setting": "[1]; [2]", "value": "minor processing; also recorded: little detectable processing"}, {"measurement": "cytochrome c in cytosolic extracts, factor alone", "setting": "cytochrome c; [2]", "value": "background levels of cytochrome c"}, {"measurement": "cytochrome c in cytosolic extracts, factor with PDT", "setting": "cytochrome c; PDT in combination with TRAIL 20 ng/ml or FasL 7.5 ng/ml, 3 hours", "value": "readily detectable amounts of cytochrome c"}]}, {"substance": "benzoporphyrin derivative monoacid ring A [verteporfin, reference compound]", "values": [{"measurement": "protease activity on DEVD, VEID and IETD peptides, single treatment", "setting": "caspase-3, -6 and -8; 3 hours", "value": "modestly increased"}, {"measurement": "verteporfin concentration at which the effect of PDT on caspase activity was greatest", "setting": "caspase-3, -6 and -8; light 5 J/cm^2, extracts 3 hours post-PDT", "value": 5, "unit": "ng/mL"}, {"measurement": "effect of PDT alone on DEVDase-, VEIDase- and IETDase-like activity", "setting": "caspase-3, -6 and -8; verteporfin and light 5 J/cm^2, no FasL or TRAIL, 3 hours post-PDT", "value": "promoted DEVDase-like, VEIDase-like and IETDase-like activity; also recorded: increased levels of DEVDase-like, VEIDase-like and IETDase-like activity"}, {"measurement": "caspase processing after PDT alone", "setting": "[1]; increasing verteporfin concentrations, 5 J/cm^2, 3 hours after irradiation", "value": "evidence of caspase-3, -6, -8 and -9 processing; also recorded: processing of caspases-3, -6, -8 and -9"}, {"measurement": "caspase-3, -8, -9 and PARP processing after PDT alone", "setting": "[1]; verteporfin 5 ng/ml, 5 J/cm^2, 3 hours (FIG. 8)", "value": "a moderate degree"}, {"measurement": "cytochrome c in cytosolic fractions, immediately versus three hours after photoirradiation", "setting": "cytochrome c; verteporfin and light 5 J/cm^2", "value": "comparable levels of cytochrome c"}, {"measurement": "cytochrome c within the cytosolic fraction", "setting": "cytochrome c; verteporfin and light 5 J/cm^2, extracts prepared immediately afterward", "value": "immediate appearance of cytochrome c"}]}]}
